Experiments:
[1] = Solubility of olaparib in glycerolipids with and without digestion enhancers; type: physicochemical; conditions: 55 mg in 1 g of only MAISINE CC, only GELUCIRE 43/01, or their admixture, 130° C., stirred at least 60 minutes
[2] = Miscibility / self-emulsification test modelling ICH dissolution testing; type: physicochemical; conditions: 1 g of 100% or 75% preparation in 1 L PBS with […] curcumin, 37° C., stirring 300 rpm 10 min, then 10 min without stirring
Description: To assess whether oleic acid could self-emulsify at the concentrations used in the disclosed pharmaceutical compositions, experiments was performed that were designed to model dissolution testing according to International Council for Harmonisation (ICH) guidelines. […] Miscibility experiments were performed using two concentrations of oleic acid nominally above the CMC concentration for this fatty acid. In one series of experiments, 1 g of 100% oleic acid was added to the dissolution media. The control compound was 1 g of 100% MAISINE™ CC. In a second series of experiments 1 g of 75% oleic acid (diluted with 250 mg of MAISINE™ CC) was added to the dissolution media. The control compound was 1 g of 75% MAISINE™ CC. The miscibility of oleic acid and MAISINE™ CC was assessed by observing the dissolution media for 10 minutes with constant stirring and then 10 minutes without stirring. Photographs were taken at time 0, 1, 2, 3, 4, 5 and 10 minutes during the stirring phase and 2, 4 and 10 minutes after stirring ceased.

SMILES | solubility of olaparib in glycerolipids without digestion enhancers [1] | miscibility in dissolution media [2]
O=C(c1cc(Cc2n[nH]c(=O)c3ccccc23)ccc1F)N1CCN(C(=O)C2CC2)CC1 [olaparib] | remained insoluble | –
CCCCCCCC/C=C\CCCCCCCC(=O)O [oleic acid] | – | not miscible
